Measured values: patent US20090286790A1, “ORGANIC COMPOUNDS” (priority 2006, published 2009)
pIC50: −log10 of the molar value.

Target: T1, CETP (Homo sapiens, UniProt P11597)
T1 construct: Human plasma (50 uL), assay buffer (35 uL) and test compound; tissue New Drug Development Research Center, Inc; host or cells: human EDTA plasma from healthy men
T1 sequence (P11597 18-493): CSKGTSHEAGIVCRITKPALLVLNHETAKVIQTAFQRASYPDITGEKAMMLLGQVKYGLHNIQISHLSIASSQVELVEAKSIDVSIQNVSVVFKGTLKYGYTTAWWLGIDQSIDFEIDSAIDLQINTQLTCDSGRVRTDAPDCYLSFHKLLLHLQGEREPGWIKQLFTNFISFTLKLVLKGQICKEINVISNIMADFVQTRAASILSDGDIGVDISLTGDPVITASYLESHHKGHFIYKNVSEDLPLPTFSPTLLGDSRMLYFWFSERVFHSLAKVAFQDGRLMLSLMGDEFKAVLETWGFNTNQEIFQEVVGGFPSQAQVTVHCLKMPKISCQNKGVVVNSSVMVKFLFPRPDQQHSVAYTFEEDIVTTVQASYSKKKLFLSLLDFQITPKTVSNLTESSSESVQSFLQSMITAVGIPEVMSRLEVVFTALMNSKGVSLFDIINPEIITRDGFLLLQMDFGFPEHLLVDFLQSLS
Test: In vitro CETP activity assay in human plasma
Assay type: biochemical
Conditions: Table 1 Inhibitory Activity of Compounds
Experimental: The cDNA of human pro-apoAI (NCBI accession number: NM_000039) is cloned from human liver Quick-Clone™ cDNA (Clontech, CA) and inserted to a pET28a vector (Novagen, Germany) for bacterial expression. Expressed protein as a fusion protein with 6×His-tag at N-terminus in BL-21 Gold (DE3) (Strategene, CA) is purified using HiTrap Chelating (GE Healthcare, CT).
Pro-apoAI containing microemulsion as a donor particle is prepared following previous reports (J. Biol. Chem., 280:14918-22). Glyceryl trioleate (62.5 ng, Sigma, Mo.), 3-sn-phosphatidylcholine (583 ng, Wako Pure Chemical Industries, Japan), and cholesteryl BODIPY® FL C12 (250 ng, Invitrogen, CA) are dissolved in 1 mL of chloroform. The solution is evaporated, then residual solvent is removed in vacuum for more than 1 hr. […]
Human EDTA plasma samples from healthy men are purchased from New Drug Development Research Center, Inc. Donor solution is prepared by a dilution of donor microemulsion with assay buffer. […] Fluorescence intensities are measured every 30 min at 37° C. with excitation wave length of 485 nm and emission wavelength of 535 nm. The CETP activity (Fl/min) is defined as the changes of fluorescence intensity from 30 to 90 min.

CC[C@@H]1C[C@H](N(Cc2cc(C(F)(F)F)cc(C(F)(F)F)c2)c2ncc(Br)cn2)C[C@H](Cc2ccccc2)N1C(=O)[C@H]1CC[C@@H](O)CC1 (relative stereo) [Example 18, {2-benzyl-4-[(3,5-bis-trifluoromethyl-benzyl)-(5-bromo-pyrimidin-2-yl)-amino]-6-ethyl-piperidin-1-yl}-(4-hydroxy-cyclohexyl)-methanone]
pIC50: 6.45

CC[C@@H]1C[C@H](N(Cc2cc(C(F)(F)F)cc(C(F)(F)F)c2)c2ncc(Br)cn2)C[C@H](Cc2ccccc2)N1C(=O)[C@H]1CC[C@@H](OC(C)=O)CC1 (relative stereo) [Example 17, acetic acid 4-{2-benzyl-4-[(3,5-bis-trifluoromethyl-benzyl)-(5-bromo-pyrimidin-2-yl)-amino]-6-ethyl-piperidine-1-carbonyl}-cyclohexyl Ester]
pIC50: 6.50
